# Laboratory results published in patent US5686613A, “Tridentate metal ligands of certain pyridine phosphonic acids” (priority 1996, dated 1997).
# Read-outs that look alike come from different tables or passages of the source.
# Assays:
# [1] = Degradation of Fe(III)-2,6 PDPA in H2S redox reaction without stabilizer (uv-vis spectrophotometric analysis), pH 8.5 and 25° C.; assay type: physicochemical; conditions: pH 8.5, 25° C., no stabilizer
# Protocol: Both ligands were evaluated in the iron chelate form.
# The concentration of 2,6 PDPA was analyzed by the following uv-vis spectrophotometric measurements: to 1.0 mL of solution taken from the continuous reactor, 150 mg of NaOH in 15 mL water was added with stirring. The mixture was heated with a steam-bath for 2 hr, then allowed to stand at room temperature for 2 hr. […] The filtrate combined with the washings, was transferred to a 50 mL volumetric flask, and diluted to […] with 6M HCl. This solution was ready for uv-vis spectrophotometric analysis.
# [2] = Degradation of Fe(III) chelate ligand in H2S redox reaction in the presence of thiosulfate stabilizer; assay type: physicochemical; conditions: for NTA (M) (concentration remaining) / NTA, % Remaining: Fe(III)-NTA, pH 8.5, 32 g Na2S2O3 per liter
# Source text: Table 3 and FIG. 5 contain the data obtained from a run with the continuous glass reaction apparatus described above.
# [3] = iron chelate, cited from earlier work
# [4] = Protocol: (§1) The redox reaction was carried out in a continuous glass reaction apparatus as described in D. Chen, R. J. Motekaitis, A. E. Martell and D. McManus, Can. J. Chem., 71, 1524 (1993) which is incorporated herein by reference.
# Experimental runs were also conducted with 2P6C, with and without K2 SO3 added as a stabilizer.
# [5] = remark: listed apart in the source
# Protocol: The degradation resistances of pyridine-2-phosphonic-6-carboxylic acid (2P6C) and pyridine-2,6-diphosphonic acid (2,6-PDPA), prepared by the synthesis schemes presented in FIGS. 2 and 3, respectively, were evaluated as described below. Both ligands were evaluated in the iron chelate form.
# 1. Degradation of Fe(III)-2P6C at pH 8.5 and 25° C. (Fe(III)0.018M, 2P6C 0.036 M; H2 S flow rate=2.0 mL/min.)
# as §1
# Preparation of iron-free sample. To 4.0 mL of solution taken from the continuous reactor, 100 mg of NaOH in 20 mL water were added dropwise with stirring. The mixture was heated to 70°-80° C. for 30 min. The Fe(OH)3 that precipitated was filtered off carefully and was washed several times with water. The filtrate was combined with the washings and was transferred to a 50 mL volumetric flask. The pH of the solution was adjusted with acid to 4.2, and then diluted with distilled water to 50 mL.
# Operating conditions. Analytical column: I-SIL 5 C8, reverse phase 4.5×150 mm; Column temperature: ambient; mobile phase flow rate: 1.5 mL/min; Detector: UV at 275 nm, 0.20 AUFS; Sample volume: 20 microliter; Recorder: 10 mV full-scale; Chart speed: 0.5 cm/min. The mobile phase contained: 0.0010 M Cu(II), 60:40 H2 O: MeOH, 2% HOAc, 0.2% CH3 (CH2)15 (CH3)3 NBr, adjusted to pH 4.2 With NaOH solution.
# Using the same test conditions described above, the degradation of nitrilotriacetic acid (NTA) was evaluated.
# [6] = h2s redox reactor, 100 h, 36000 µM, pH 8.5
smiles,measurement,setting,value
"O=P(O)(O)c1cccc(P(=O)(O)O)n1 [2,6-PDPA, pyridine-2,6-diphosphonic acid]",degradation,"[1]; 100 hr, Fe(III) 0.0090 M, 2,6 PDPA 0.018 M",no significant degradation was observed
same,"degradation, estimated","[1]; over 100 hr, 18000 µM",less than 5%
same,degradation in the presence of thiosulfate,"[2]; after 100 hr of operation, thiosulfate",no detectable degradation was observed
"O=C(O)c1cccc(C(=O)O)n1 [2,6-pyridinedicarboxylic acid]",precipitation of ferric hydroxide from ferric chelate,[3]; normal pH of the process,unacceptable precipitation of ferric hydroxide
same,resistance to catalyst degradation,[3],good resistance to catalyst degradation
"O=C(O)c1cccc(P(=O)(O)O)n1 [2P6C, pyridine-2-phosphonic-6-carboxylic acid]",2P6C % Remaining,[4]; 0 min,100.0%
same,2P6C % Remaining,"[4]; h2s reactor, 5% k2so3, 2 h",100.0%
same,2P6C % Remaining,"[4]; h2s reactor, 5% k2so3, 20 h",97.7%
same,2P6C % Remaining,"[4]; h2s reactor, 5% k2so3, 44 h",97.6%
same,2P6C % Remaining,"[4]; h2s reactor, 5% k2so3, 68 h",97.4%
same,2P6C % Remaining,"[4]; h2s reactor, 5% k2so3, 92 h",98.9%
same,degradation in the presence of thiosulfate,[2],no detectable degradation was observed
same,degradation compared with NTA,[5],degrades much more slowly than NTA
same,2P6C % Remaining,"[5]; 0 min, 36000 uM, pH 8.5",100.0%
same,2P6C % Remaining,"[5]; h2s redox reactor, 25 h, 36000 µM, pH 8.5",94.4%
same,2P6C % Remaining,"[5]; h2s redox reactor, 50 h, 36000 µM, pH 8.5",86.1%
same,2P6C % Remaining,"[5]; h2s redox reactor, 84 h, 36000 µM, pH 8.5",83.3%
same,2P6C % Remaining,[5]; [6],80.6%
same,2P6C lost after redox reaction,[5]; [6],about 20%
same,degradation during the redox reaction,[5]; pH 8.5,degrades very slowly
same,effect of hydroxylation/degradation on the process,[5]; pH 8.5,no deleterious effect on the process is observed
"O=C(O)CN(CC(=O)O)CC(=O)O [NTA, nitrilotriacetic acid]",degradation with thiosulfate,[2],much slower when thiosulfate is added
same,rate of degradation with thiosulfate,[2],still measurable
same,NTA (M) (concentration remaining),[2]; 0 hr,0.0362 M
same,"NTA, % Remaining",[2]; 0 hr,100.0%
same,NTA (M) (concentration remaining),[2]; 14.0 hr,0.0344 M
same,"NTA, % Remaining",[2]; 14.0 hr,95.0%
same,NTA (M) (concentration remaining),[2]; 26.0 hr,0.0333 M
same,"NTA, % Remaining",[2]; 26.0 hr,92.0%
same,NTA (M) (concentration remaining),[2]; 39.0 hr,0.0320 M
same,"NTA, % Remaining",[2]; 39.0 hr,88.4%
same,NTA (M) (concentration remaining),[2]; 50.0 hr,0.0317 M
same,"NTA, % Remaining",[2]; 50.0 hr,87.6%
same,NTA (M) (concentration remaining),[2]; 66.0 hr,0.0306 M
same,"NTA, % Remaining",[2]; 66.0 hr,84.5%
same,NTA (M) (concentration remaining),[2]; 80.0 hr,0.0297 M
same,"NTA, % Remaining",[2]; 80.0 hr,82.0%
same,NTA (M) (concentration remaining),[2]; 99.0 hr,0.0293 M
same,"NTA, % Remaining",[2]; 99.0 hr,80.9%
same,"NTA, % Remaining","[5]; 0 min, pH 8.5",100.0%
same,"NTA, % Remaining","[5]; h2s redox reactor, 12 h, pH 8.5",75.7%
same,"NTA, % Remaining","[5]; h2s redox reactor, 20 h, pH 8.5",65.7%
same,"NTA, % Remaining","[5]; h2s redox reactor, 30 h, pH 8.5",52.4%
same,"NTA, % Remaining","[5]; h2s redox reactor, 40 h, pH 8.5",49.4%
same,"NTA, % Remaining","[5]; h2s redox reactor, 64 h, pH 8.5",32.9%
same,"NTA, % Remaining","[5]; h2s redox reactor, 77 h, pH 8.5",26.2%
